pIC50: −log10 of the molar value.
What was measured:
B16 [1] = assay: Inhibition of melanin production in alpha-MSH stimulated mouse B16 cells after 72 hrs by spectrophotometry; format: functional, cell-based; details: for pIC50: B16, 72 h
B16 [2] = assay: Cytotoxicity against alpha-MSH stimulated mouse B16 cells after 72 hrs by MTT assay; format: cell-based; details: B16, 72 h

SMILES | inhibition (B16 [1]) | pIC50 (B16 [1]) | pIC50 (B16 [2])
C=C(C)[C@@]12O[C@@]3(/C=C/C=C/CCCCC)O[C@@H]1[C@@H]1[C@@H]4O[C@]4(CO)[C@@H](O)[C@]4(O)C(=O)C(C)=C[C@H]4[C@@]1(O3)[C@H](C)[C@H]2OC(=O)c1ccccc1 [GNIDILATIDIN] | Dose-dependent effect | 6.80 | < 4.52
C=C(C)[C@@]12OC3(C)O[C@@H]1[C@@H]1C=C(CO)C[C@]4(O)C(=O)C(C)=C[C@H]4[C@@]1(O3)[C@H](C)[C@H]2OC(C)=O | Dose-dependent effect | 5.31 | < 4.52
C=C(C)[C@]12C[C@@H](C)[C@@]34OC(c5ccccc5)(O[C@@H]1[C@@H]3[C@H](O)[C@](O)(COC(=O)c1ccccc1)[C@@H](O)[C@@]1(O)[C@H]4C[C@H](C)[C@@H]1O)O2 | Dose-dependent effect | 5.70 | < 4.52
C=C(C)[C@@]12OC3(/C=C/C=C/CCCCC)O[C@@H]1[C@@H]1[C@@H]4O[C@]4(CO)[C@@H](O)[C@]4(O)C(=O)C(C)=C[C@H]4[C@@]1(O3)[C@H](C)[C@H]2OC(=O)CC | Dose-dependent effect | 6.72 | 4.55
C=C(C)[C@@]12O[C@@]3(/C=C/C=C/CCCCC)O[C@@H]1[C@@H]1[C@@H]4O[C@]4(CO)[C@@H](O)[C@]4(O)C(=O)C(C)=C[C@H]4[C@@]1(O3)[C@H](C)[C@H]2OC(C)=O [YUANHUADINE] | Dose-dependent effect | 7.22 | 4.66
C=C(C)[C@]12C[C@@H](C)[C@@]34OC(c5ccccc5)(O[C@@H]1[C@@H]3[C@H](O)[C@](O)(CO)[C@@H](O)[C@@]1(O)[C@H]4C[C@H](C)[C@@H]1O)O2 | Dose-dependent effect | 5.05 | < 4.52
OC[C@H]1O[C@@H](Oc2ccc(O)cc2)[C@H](O)[C@@H](O)[C@@H]1O [ARBUTIN] |  | 3.85 | 
C=C(C)[C@@]12OCO[C@@H]1[C@@H]1[C@@H]3O[C@]3(CO)[C@@H](O)[C@]3(O)C(=O)C(C)=C[C@H]3[C@@]1(Oc1ccccc1)[C@H](C)[C@H]2OC(=O)c1ccccc1 [GENKWADAPHNIN] | Dose-dependent effect | 6.74 | < 4.52
C=C(C)[C@]12C[C@@H](C)[C@@]34OC(c5ccccc5)(O[C@@H]1[C@@H]3[C@H](O)[C@](O)(COC(=O)/C=C/C=C/CCCCC)[C@@H](O)[C@@]1(O)[C@H]4C[C@H](C)[C@@H]1O)O2 | Dose-dependent effect | 6.24 | < 4.52
C=C(C)[C@@]12OC3(C)O[C@@H]1[C@@H]1C=C(CO)C[C@]4(O)C(=O)C(C)=C[C@H]4[C@@]1(O3)[C@H](C)[C@H]2OC(=O)c1ccccc1 |  | 5.64 | 5.18

Reference: ChEMBL document CHEMBL2385014, “Melanogenesis inhibitory daphnane diterpenoids from the flower buds of Daphne genkwa” (Bioorg Med Chem Lett, 2013)
